Measurements from patent US20230167103A1 (Bayer Aktiengesellschaft, priority 2020, published 2023).

biological target: T1, human DGKζ (Homo sapiens, UniProt Q13574); assay: Human DGKζ kinase activity inhibition assay (ADP-Glo); type: biochemical; conditions: example compounds; recombinant full-length human DGKζ, 1,2-dioleoyl-sn-glycerol 7 μM, ATP 55 μM, 20 min at 22° C.; read-out: IC50 values of examples in in vitro human DGKζ kinase activity inhibition assays
T1 construct: made in house; host or cells: Sf9 insect cells, baculovirus
T1 sequence (Q13574 with tags, fused parts or gaps): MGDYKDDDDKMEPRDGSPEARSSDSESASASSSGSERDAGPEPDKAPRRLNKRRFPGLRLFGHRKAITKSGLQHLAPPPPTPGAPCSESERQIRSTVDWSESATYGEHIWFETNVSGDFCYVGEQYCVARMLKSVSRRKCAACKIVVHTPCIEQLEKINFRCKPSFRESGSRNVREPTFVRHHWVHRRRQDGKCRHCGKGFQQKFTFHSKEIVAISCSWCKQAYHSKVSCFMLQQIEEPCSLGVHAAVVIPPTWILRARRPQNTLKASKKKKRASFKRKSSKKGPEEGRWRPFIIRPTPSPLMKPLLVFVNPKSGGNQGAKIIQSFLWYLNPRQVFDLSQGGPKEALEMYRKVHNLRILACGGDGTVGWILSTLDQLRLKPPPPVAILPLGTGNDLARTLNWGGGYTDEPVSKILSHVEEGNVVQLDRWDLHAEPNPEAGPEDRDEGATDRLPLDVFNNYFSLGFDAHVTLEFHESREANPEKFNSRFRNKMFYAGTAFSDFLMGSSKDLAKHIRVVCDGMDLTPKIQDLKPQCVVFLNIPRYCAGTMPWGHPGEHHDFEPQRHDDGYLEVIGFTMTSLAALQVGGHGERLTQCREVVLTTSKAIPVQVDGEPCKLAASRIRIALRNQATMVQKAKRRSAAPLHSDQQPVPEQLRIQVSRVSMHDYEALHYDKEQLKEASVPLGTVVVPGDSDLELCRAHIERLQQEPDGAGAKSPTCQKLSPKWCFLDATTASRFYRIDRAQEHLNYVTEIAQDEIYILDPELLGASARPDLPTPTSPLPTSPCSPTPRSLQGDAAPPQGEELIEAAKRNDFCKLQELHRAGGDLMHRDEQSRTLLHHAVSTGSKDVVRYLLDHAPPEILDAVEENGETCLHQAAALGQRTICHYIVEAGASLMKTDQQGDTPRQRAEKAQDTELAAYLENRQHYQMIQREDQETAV
Outline: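 Enzyme was C-terminally FLAG-tagged full-length human DGKζ from baculovirus-infected insect cells, typically about 0.1 nM, with 1,2-dioleoyl-sn-glycerol in octyl-β-D-glucopyranoside micelles as substrate. ADP formed was detected by ADP-Glo luminescence; data normalised to no-inhibitor (0%) and no-enzyme (100%) controls.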

| Molecule | IC50 [nM] |
| --- | --- |
| CC(C(N)=O)N(c1ccc(F)cc1)c1nc(N)c(C(=O)c2cc(-c3ccc(OC(F)(F)F)cc3)no2)s1 (racemic) [Example 69, rac-2-(N-[4-amino-5-[3-[4-(trifluoromethoxy)phenyl]isoxazole-5-carbonyl]thiazol-2-yl]-4-fluoro-anilino)propanamide] | 117 |
| COc1ccccc1-c1cc(C(=O)c2sc(N(c3ccc(F)cc3)C(C)C(N)=O)nc2N)on1 (racemic) [Example 70, rac-2-(N-[4-amino-5-[3-(2-methoxyphenyl)isoxazole-5-carbonyl]thiazol-2-yl]-4-fluoro-anilino)propanamide] | 27 |
| COc1ccc(-c2cc(C(=O)c3sc(N(c4ccc(F)cc4)C(C)C(N)=O)nc3N)on2)cn1 (racemic) [Example 71, rac-2-(N-[4-amino-5-[3-(6-methoxy-3-pyridyl))isoxazole-5-carbonyl]thiazol-2-yl]-4-fluoro-anilino)propanamide] | 96 |
| CC(C(N)=O)N(c1ccc(F)cc1)c1nc(N)c(C(=O)c2cc(CN3CC(F)C3)no2)s1 (racemic) [Example 73, rac-2-(N-[4-amino-5-[3-[(3-fluoroazetidin-1-yl)methyl]isoxazole-5-carbonyl]thiazol-2-yl]-4-fluoro-anilino)propanamide] | 325 |
| CC(C(N)=O)N(c1ccc(F)cc1)c1nc(N)c(C(=O)c2cc(CN3CC(F)(F)C3)no2)s1 (racemic) [Example 74, rac-2-(N-[4-amino-5-[3-[(3,3-difluoroazetidin-1-yl)methyl]isoxazole-5-carbonyl]thiazol-2-yl]-4-fluoro-anilino)propanamide] | 113 |
| CC(C(N)=O)N(c1ccc(F)cc1)c1nc(N)c(C(=O)c2cc(CN3CCC(F)(F)CC3)no2)s1 (racemic) [Example 75, rac-2-(N-[4-amino-5-[3-[(4,4-difluoro-1-piperidyl)methyl]isoxazole-5-carbonyl]thiazol-2-yl]-4-fluoro-anilino)propanamide] | 26 |
| CC(C(N)=O)N(c1ccc(F)cc1)c1nc(N)c(C(=O)c2cc(OC3CCC3)no2)s1 (racemic) [Example 79, rac-2-(N-[4-amino-5-[3-(cyclobutoxy)isoxazole-5-carbonyl]thiazol-2-yl]-4-fluoro-anilino)propanamide] | 88 |
| CC(C(N)=O)N(c1ccc(F)cc1)c1nc(N)c(C(=O)c2cc(OCC3CCC3)no2)s1 (racemic) [Example 80, rac-2-(N-[4-amino-5-[3-(cyclobutylmethoxy)isoxazole-5-carbonyl]thiazol-2-yl]-4-fluoro-anilino)propanamide] | 31 |
| CC(C(N)=O)N(c1ccc(F)cc1)c1nc(N)c(C(=O)c2cc(OC3CCC(F)(F)CC3)no2)s1 (racemic) [Example 81, rac-2-(N-[4-Amino-5-[3-(4,4-difluorocyclohexoxy)isoxazole-5-carbonyl]thiazol-2-yl]-4-fluoro-anilino)propanamide] | 17 |
| CC(C)Oc1cc(C(=O)c2sc(N(c3ccc(F)cc3)C(C)C(N)=O)nc2N)on1 (racemic) [Example 82, rac-2-(N-[4-amino-5-(3-isopropoxyisoxazole-5-carbonyl)thiazol-2-yl]-4-fluoro-anilino)propanamide] | 49 |
| CC(C(N)=O)N(c1ccc(F)cc1)c1nc(N)c(C(=O)c2cc(-c3ccccc3)no2)s1 (single isomer, unassigned) [Example 3.2, 2-(N-[4-amino-5-(3-phenylisoxazole-5-carbonyl)thiazol-2-yl]-4-fluoro-anilino)propanamide] | 1750 |
| CC(C(N)=O)N(c1ccc(F)cc1)c1nc(N)c(C(=O)c2cc(Br)no2)s1 (single isomer, unassigned) [Example 6.1, 2-(N-[4-amino-5-(3-bromoisoxazole-5-carbonyl)thiazol-2-yl]-4-fluoro-anilino)propanamide] | 64 |
| CC(C(N)=O)N(c1ccc(F)cc1)c1nc(N)c(C(=O)c2cc(Br)no2)s1 (single isomer, unassigned) [Example 6.2, 2-(N-[4-amino-5-(3-bromoisoxazole-5-carbonyl)thiazol-2-yl]-4-fluoro-anilino)propanamide] | 3490 |
| CC(C(N)=O)N(c1ccc(F)cc1)c1nc(N)c(C(=O)c2cc(C(=O)NC3(C)CCC3)no2)s1 (single isomer, unassigned) [Example 30.1, 5-[4-amino-2-(N-(2-amino-1-methyl-2-oxo-ethyl)-4-fluoro-anilino)thiazole-5-carbonyl]-N-(1-methylcyclobutyl)isoxazole-3-carboxamide] | 29 |
| CC(C(N)=O)N(c1ccc(F)cc1)c1nc(N)c(C(=O)c2cc(C(=O)NC3(C)CCC3)no2)s1 (single isomer, unassigned) [Example 30.2, 5-[4-amino-2-(N-(2-amino-1-methyl-2-oxo-ethyl)-4-fluoro-anilino)thiazole-5-carbonyl]-N-(1-methylcyclobutyl)isoxazole-3-carboxamide] | 13400 |
| CC(C(N)=O)N(c1ccc(F)cc1)c1nc(N)c(C(=O)c2cc(C(=O)NC3CC(F)(F)C3)no2)s1 (single isomer, unassigned) [Example 32.1, 5-[4-amino-2-(N-(2-amino-1-methyl-2-oxo-ethyl)-4-fluoro-anilino)thiazole-5-carbonyl]-N-(3,3-difluorocyclobutyl)isoxazole-3-carboxamide] | 31 |
| CC(C(N)=O)N(c1ccc(F)cc1)c1nc(N)c(C(=O)c2cc(C(=O)NC3CC(F)(F)C3)no2)s1 (single isomer, unassigned) [Example 32.2, 5-[4-amino-2-(N-(2-amino-1-methyl-2-oxo-ethyl)-4-fluoro-anilino)thiazole-5-carbonyl]-N-(3,3-difluorocyclobutyl)isoxazole-3-carboxamide] | 897 |
| CC(C(N)=O)N(c1ccc(F)c(F)c1)c1nc(N)c(C(=O)c2cc(C(=O)NC3(C)CCC3)no2)s1 (single isomer, unassigned) [Example 44.1, 5-[4-amino-2-(N-(2-amino-1-methyl-2-oxo-ethyl)-3,4-difluoro-anilino)thiazole-5-carbonyl]-N-(1-methylcyclobutyl)isoxazole-3-carboxamide] | 19 |
| CC(C(N)=O)N(c1ccc(F)c(F)c1)c1nc(N)c(C(=O)c2cc(C(=O)NC3(C)CCC3)no2)s1 (single isomer, unassigned) [Example 44.2, 5-[4-amino-2-(N-(2-amino-1-methyl-2-oxo-ethyl)-3,4-difluoro-anilino)thiazole-5-carbonyl]-N-(1-methylcyclobutyl)isoxazole-3-carboxamide] | 4510 |
| CC(C(N)=O)N(c1ccc(F)c(F)c1)c1nc(N)c(C(=O)c2cc(C(=O)NC3CC(F)(F)C3)no2)s1 (single isomer, unassigned) [Example 45.1, 5-[4-amino-2-(N-(2-amino-1-methyl-2-oxo-ethyl)-3,4-difluoro-anilino)thiazole-5-carbonyl]-N-(3,3-difluorocyclobutyl)isoxazole-3-carboxamide] | 20 |
| CC(C(N)=O)N(c1ccc(F)c(F)c1)c1nc(N)c(C(=O)c2cc(C(=O)NC3CC(F)(F)C3)no2)s1 (single isomer, unassigned) [Example 45.2, 5-[4-amino-2-(N-(2-amino-1-methyl-2-oxo-ethyl)-3,4-difluoro-anilino)thiazole-5-carbonyl]-N-(3,3-difluorocyclobutyl)isoxazole-3-carboxamide] | 1270 |
| CC(C(N)=O)N(c1ccc(F)c(F)c1)c1nc(N)c(C(=O)c2cc(C(=O)NC3CCCC3)no2)s1 (single isomer, unassigned) [Example 46.1, 5-[4-amino-2-(N-(2-amino-1-methyl-2-oxo-ethyl)-3,4-difluoro-anilino)thiazole-5-carbonyl]-N-cyclopentyl-isoxazole-3-carboxamide] | 27 |
| CC(C(N)=O)N(c1ccc(F)c(F)c1)c1nc(N)c(C(=O)c2cc(C(=O)NC3CCCC3)no2)s1 (single isomer, unassigned) [Example 46.2, 5-[4-amino-2-(N-(2-amino-1-methyl-2-oxo-ethyl)-3,4-difluoro-anilino)thiazole-5-carbonyl]-N-cyclopentyl-isoxazole-3-carboxamide] | 2280 |
| C[C@H](C(N)=O)N(c1ccc(F)cc1)c1nc(N)c(C(=O)c2cc(-c3ccccc3)no2)s1 [Example 3.1, (R)-2-(N-[4-amino-5-(3-phenylisoxazole-5-carbonyl)thiazol-2-yl]-4-fluoro-anilino)propanamide] | 61 |

same assay, conditions: intermediates (comparative, lacking the R2 alkyl-carboxamide group); same assay conditions; read-out: IC50 values of intermediates in in vitro human DGKζ kinase activity inhibition assays

| Molecule | IC50 [nM] |
| --- | --- |
| rac-2-(N-[4-amino-5-[3-(pyrrolidine-1-carbonyl)isoxazole-5-carbonyl]thiazol-2-yl]-4-fluoro-anilino)propanamide [Example 19] | > 20000 |
| rac-5-[4-amino-2-(N-(2-amino-1-methyl-2-oxo-ethyl)-4-fluoro-anilino)thiazole-5-carbonyl]-N-(1-cyclopropylcyclopropyl)isoxazole-3-carboxamide [Example 24] | > 20000 |
| rac-5-[4-amino-2-(N-(2-amino-1-methyl-2-oxo-ethyl)-4-fluoro-anilino)thiazole-5-carbonyl]-N-(1-methylcyclobutyl)isoxazole-3-carboxamide [Example 30] | 12000 |
| rac-5-[4-amino-2-(N-(2-amino-1-methyl-2-oxo-ethyl)-4-fluoro-anilino)thiazole-5-carbonyl]-N-(2-pyridyl)isoxazole-3-carboxamide [Example 28] | 19400 |
